# US11771123B2, “Methods for treating biomass to produce oligosaccharides and related compositions” (Cambridge Glycoscience Ltd, priority 2019, dated 2023)
# Experiment: Glaze formation: dried on glass plate and scored with a knife
# Assay type: physicochemical
# Settings: cellobiose alone, 10-320 mM, dried at 37° C.
# Description: 100 μl of 10-320 mM (10, 20, 40, 80, 160, and 320 mM) cellobiose±1% w/v birchwood xylan was pipetted onto a glass plate. • 2. Samples were dried at 37° C. • 3. Samples were scored with a knife to test whether or not the ingredient settled into a solid glaze. […] With a cellobiose concentration of 160 mM or higher (5.5% w/v, or 550% w/w as compared with xylan) the morphology of the glaze reverted to that without xylan present.
row,Compound,Glaze formation
1,O=C[C@H](O)[C@@H](O)[C@H](O[C@@H]1O[C@H](CO)[C@@H](O)[C@H](O)[C@H]1O)[C@H](O)CO [cellobiose],no firm glaze was formed

# Experiment: Flow characteristics: timed flow from a vertically stood syringe under gravity
# Assay type: physicochemical
# Settings: syringe filled with 20 mL test liquid, room temperature
# Description: The glucose solutions were made by weighing 6, 12, 18, and 24 g D-glucose respectively and making up with 90° C. water to 30 mL. The flow characteristics were measured by timing the flow rate of 5 mL, and where suitable, 20 mL of the liquids from a vertically stood syringe (BD Plastipak 300613) filled with 20 mL of test liquid under gravity at room temperature.
# Sample were analyzed for flow characteristics as described in Example 9.
Compound,Time for 5 mL flow,Time for 20 mL flow
"O=C[C@H](O)[C@@H](O)[C@H](O)[C@H](O)CO [20% w/v glucose, D-glucose]",2.3 s,13.5 s
"O=C[C@H](O)[C@@H](O)[C@H](O)[C@H](O)CO [40% w/v glucose, D-glucose]",2.5 s,15 s
"O=C[C@H](O)[C@@H](O)[C@H](O)[C@H](O)CO [60% w/v glucose, D-glucose]",3 s,20 s
"O=C[C@H](O)[C@@H](O)[C@H](O)[C@H](O)CO [80% w/v glucose, D-glucose]",5 s,38 s
